From patent EP4342890A1, “PLATFORM AND SCAFFOLD FOR FAP TARGETING AGENTS” (Erasmus University Rotterdam Medical Center, priority 2022, dated 2024) come the findings set out here.

A value given as a limit tells only on which side of the number the result lay.

One series addresses T1, PREP (Homo sapiens, UniProt P48147).
T1 sequence (P48147 1-710): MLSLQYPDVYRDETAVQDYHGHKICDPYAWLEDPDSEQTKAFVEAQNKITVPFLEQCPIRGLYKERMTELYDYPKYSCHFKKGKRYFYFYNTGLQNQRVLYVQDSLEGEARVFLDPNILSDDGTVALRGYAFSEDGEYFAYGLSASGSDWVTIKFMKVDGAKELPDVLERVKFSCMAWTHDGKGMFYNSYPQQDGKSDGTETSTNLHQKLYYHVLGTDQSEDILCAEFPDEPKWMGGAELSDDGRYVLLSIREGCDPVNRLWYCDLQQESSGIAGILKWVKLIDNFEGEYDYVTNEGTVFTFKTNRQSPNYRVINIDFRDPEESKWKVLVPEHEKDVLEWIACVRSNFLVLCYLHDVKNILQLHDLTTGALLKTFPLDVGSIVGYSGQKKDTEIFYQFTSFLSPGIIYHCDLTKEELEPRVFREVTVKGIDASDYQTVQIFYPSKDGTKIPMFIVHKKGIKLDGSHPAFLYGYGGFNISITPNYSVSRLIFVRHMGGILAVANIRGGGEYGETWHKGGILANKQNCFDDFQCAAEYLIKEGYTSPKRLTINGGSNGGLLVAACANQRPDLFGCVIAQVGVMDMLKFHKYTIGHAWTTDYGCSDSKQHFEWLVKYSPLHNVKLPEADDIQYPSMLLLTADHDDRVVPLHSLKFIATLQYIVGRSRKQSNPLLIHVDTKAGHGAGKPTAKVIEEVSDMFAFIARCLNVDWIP
Briefly: In vitro inhibition assay on PREP (Z-GP-AMC substrate). It counts as biochemical. The note with it: enzymatic assay; 20 µM substrate, 2 nM PREP; unit inferred. As for the experimental part:
Enzymatic activity of PREP on the Z-GP-AMC substrate was measured at room temperature on a Hidex microplate reader by monitoring the fluorescence at an excitation wavelength of 360 nm and an emission wavelength of 465 nm. The reaction mixture contained 20 µM substrate, 2 nM PREP, assay buffer (50 mM Tris, 100 mM NaCl, 1 mM EDTA, pH 7.4) and tested compound (serial dilution from 10-6 to 10-12) in a total volume of 50 µL.

The next series addresses DPP4 (Homo sapiens, UniProt P27487). The series is described as follows: In vitro inhibition assay on DPP4 (Z-GP-pNA substrate). Type of series: biochemical. Particulars: enzymatic assay; 20 µM Z-GP-pNA; unit inferred.
The subject of the next series is HT-1080.hFAP tumor. The series is described as follows: Biodistribution study in HT-1080.hFAP tumor bearing mice. Particulars: indium-111 labelled. Type of series: in vivo. From the text: Six-week-old male Balb/c nu/nu-specific and opportunistic pathogen-tree (SOPF) mice were housed in individually ventilated cages, with 4 mice per cage. Upon arrival, mice were acclimated for 1 week, with access to food and water ad libitum. Mice were subcutaneously inoculated on the right shoulder with U-87 or HT-1080.hFAP cells (1 × 10^6 cells). Xenografts were allowed to grow until they reached an appropriate size at the start of the studies. All animal experiments were approved by the Animal Welfare Committee of the Erasmus MC and were conducted in agreement with institutional guidelines (license number: AVD101002017867).
Biodistribution studies were performed to determine tumor and organ uptake of the radiolabeled eFAP compounds. Animals (n = 4 for each time point and each compound) were injected intravenously with an average of 100 kBq/0.5 nmol at t=0. At 3 selected time points (1, 4 and 24 h) p.i. blood was collected via cardiac puncture under isoflurane/O2 anesthesia, after which the mice were sacrificed. The tumor and organs of interest (prostate, pancreas, spleen, gall bladder, liver, stomach, small intestine, coecum, colon, adrenals, kidney, lung, heart, salivary glands, muscle, bone, brain were excised, washed in PBS and blotted dry. The blood, tumor, and relevant organs were weighed and measured in a γ-counter. To determine the total injected radioactivity per animal, calibration curve with indium-111 and lutetium-177 were determined. The percentage of injected dose per gram (% ID/g) was determined for each tissue sample and corrected for both the injected volume and % ID present at the injection site (the tail).
Comparison of the biodistribution in selected organs of [^111In]In-FAPI-46 and [^111In]In-eFAP-6 in HT-1080.hFAP tumor bearing mice are given in Figure 8.

In a further series the target is T2, FAP (Homo sapiens, UniProt Q12884).
T2 sequence (Q12884 1-760): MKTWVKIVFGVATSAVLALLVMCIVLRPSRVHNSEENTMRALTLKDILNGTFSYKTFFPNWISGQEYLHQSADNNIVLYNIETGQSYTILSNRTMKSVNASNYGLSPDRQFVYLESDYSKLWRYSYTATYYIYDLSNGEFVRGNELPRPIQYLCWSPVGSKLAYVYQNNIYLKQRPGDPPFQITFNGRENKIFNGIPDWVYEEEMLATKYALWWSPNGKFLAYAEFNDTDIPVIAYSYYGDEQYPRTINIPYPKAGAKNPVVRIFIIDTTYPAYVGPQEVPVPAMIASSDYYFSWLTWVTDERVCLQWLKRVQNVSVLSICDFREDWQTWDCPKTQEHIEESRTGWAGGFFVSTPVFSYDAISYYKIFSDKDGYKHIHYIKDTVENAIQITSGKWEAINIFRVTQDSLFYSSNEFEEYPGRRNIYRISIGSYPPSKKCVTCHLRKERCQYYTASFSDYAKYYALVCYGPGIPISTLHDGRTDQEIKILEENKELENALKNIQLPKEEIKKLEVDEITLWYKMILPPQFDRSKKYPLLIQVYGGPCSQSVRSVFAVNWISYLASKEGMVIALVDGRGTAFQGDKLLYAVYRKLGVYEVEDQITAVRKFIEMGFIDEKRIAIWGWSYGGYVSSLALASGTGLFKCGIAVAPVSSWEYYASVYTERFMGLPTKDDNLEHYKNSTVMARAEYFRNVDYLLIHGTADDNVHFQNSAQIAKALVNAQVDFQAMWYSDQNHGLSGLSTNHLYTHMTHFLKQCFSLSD
Briefly: Competitive binding assay against [111In]In-FAPI-46 in HT-1080.hFAP cells. Particulars: competition with [111In]In-FAPI-46 in HT-1080.hFAP cells, 37 °C, 1 h; unit inferred. The arrangement: expressed in transfected cells; host or cells: HT-1080.hFAP cells. As for the experimental part: The U-87 MG glioblastoma was cultured at 37 °C and 5% CO2 in Dulbecco's Modified Eagle Medium (DMEM) supplemented with 10 % (v/v) fetal calf serum. HT-1080.hFAP cells were kept in culture in DMEM medium supplemented with fetal bovine serum (10%, FBS) and antibiotic antimycotic (1%, AA) at 37 °C and 5% CO2. For passaging, cells were detached using Trypsin-EDTA 0.05% when reaching 90% confluence and re-seeded at a dilution of 1:4.
Competition binding experiments were conducted by incubation of the [^111In]In-FAPI-46 radioligand with increasing concentrations of eFAP compound in HT-1080.hFAP cells at 37 °C for 1 h. Cells were then washed three times with binding buffer and lysed. The cell-associated radioactivity was measured in a γ-counter. The IC50 values were calculated by fitting the data by non-linear regression using GraphPad Prism.

Setting [1] is: intravenous, HT-1080.hFAP tumor bearing mice.

DPP4, sequence (P27487 39-766): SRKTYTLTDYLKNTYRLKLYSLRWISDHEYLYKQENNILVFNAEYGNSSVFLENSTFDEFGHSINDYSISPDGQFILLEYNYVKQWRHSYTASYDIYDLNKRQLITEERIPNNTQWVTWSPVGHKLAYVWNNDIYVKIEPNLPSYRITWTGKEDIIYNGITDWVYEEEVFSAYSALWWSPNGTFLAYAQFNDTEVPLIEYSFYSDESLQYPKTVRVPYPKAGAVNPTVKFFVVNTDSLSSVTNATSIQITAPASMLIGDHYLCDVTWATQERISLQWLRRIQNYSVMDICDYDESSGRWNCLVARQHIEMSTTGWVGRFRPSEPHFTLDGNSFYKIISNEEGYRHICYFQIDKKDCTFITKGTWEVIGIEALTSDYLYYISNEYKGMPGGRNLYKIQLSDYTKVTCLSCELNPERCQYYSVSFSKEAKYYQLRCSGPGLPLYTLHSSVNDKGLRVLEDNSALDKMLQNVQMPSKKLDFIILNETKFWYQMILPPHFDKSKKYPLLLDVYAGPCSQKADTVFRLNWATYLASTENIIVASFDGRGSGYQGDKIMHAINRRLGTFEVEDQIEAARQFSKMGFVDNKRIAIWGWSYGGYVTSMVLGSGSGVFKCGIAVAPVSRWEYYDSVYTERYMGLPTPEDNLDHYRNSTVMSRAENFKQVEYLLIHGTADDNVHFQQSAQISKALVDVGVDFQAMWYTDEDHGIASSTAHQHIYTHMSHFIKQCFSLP

As to `N#C[C@@H]1CC(F)(F)CN1C(=O)CNC(=O)c1ccnc2c(OCCCNC(=O)CN3CCN(CC(=O)O)CCN(CC(=O)O)CCN(CC(=O)O)CC3)cccc12` [eFAP-6, (S)-2,2',2"-(10-(2-((3-((4-((2-(2-Cyano-4,4-difluoropyrrolidin-1-yl)-2-oxoethyl)carbamoyl)quinolin-8-yl)oxy)propyl)amino)-2-oxoethyl)-1,4,7,10-tetraazacyclododecane-1,4,7-triyl)triacetic acid], the figures for the IC50 against PREP, against DPP4 and at FAP were 108 ± 42 nM, > 10000 nM and 0.66 nM, respectively. For the same compound, the tumor targeting performance result with HT-1080.hFAP tumor (compared with the clinical reference) is reported as “comparable with that of FAPI-46”. Further, the “background uptake in healthy organs” value with HT-1080.hFAP tumor (setting [1]) is on record as “low background uptake in healthy organs”. In addition, the tumor uptake result in the series on HT-1080.hFAP tumor (setting [1]) is “high and rapid tumor uptake”. For the same compound, in the series on HT-1080.hFAP tumor (intravenous, mice), the “clearance from the body” value was “rapid clearance from the body”.

For orientation: IC50 means the midpoint of a concentration-inhibition curve. The low end stands for greater potency, the high end for weaker potency.
